# Experimental data taken from US20220401457A1, “Use of Deoxycholic Acid, Derivatives, or Salts Thereof in Managing Bacterial Infections and Compositions Related Thereto” (Emory University, priority 2019, published 2022).
# Tests used:
# [1] = test system: Streptococcus pneumoniae (Spn) strains; test: Antibacterial potency of sodium deoxycholate against cultures of Spn strains; assay type: cell-based; conditions: concentration as low as 0.5 mg/ml; within two hours of incubation; numerous different Spn strains including vaccine strains and strains with multiple resistance to antibiotics
# Description: (§1) Streptococcus pneumoniae (Spn) colonizes the upper airways of most children. From the upper airways, Spn migrates to the ear epithelium causing otitis media, a main cause of child disease in the US. Resistance in Spn strains is a serious concern. Bile salts produced in the human liver and secreted into the gut, including sodium deoxycholate. Sodium deoxycholate at a concentration of 10 mg/mL is an injectable treatment to reduce fat under the chin. The antibacterial potency of sodium deoxycholate against Spn was assessed. […] Most tested pneumococcal strains were reference strains provided by the Centers for Disease Control and Prevention (CDC). […] It is contemplated that sodium deoxycholate can be used as a prophylactic agent to eradicate Spn from the upper airways and/or as a therapeutic agent to treat pneumococcal otitis media. To eradicate Spn from the upper airways of healthy children, a strategy using the following routes can be pursued (1) the use of nasal spray to impregnate the upper airways with sodium deoxycholate, or (2) as an additive to a gel or toothpaste. For its therapeutic used in the treatment of otitis media, ototopical antibiotic preparations can be added with sodium deoxycholate to kill antibiotic resistance Spn strains.
# [2] = test system: pneumococcal colonization (Spn); test: Experiments mimicking pneumococcal colonization of the human airways; assay type: cell-based, Streptococcus pneumoniae; conditions: 0.5 mg/ml; colonization otherwise at density of 1×10^7 cfu/mL pneumococci
# Description: as §1
substance,measurement,setting,value
sodium deoxycholate,killing of cultures of Spn strains,[1],completely killed
same,time of exposure to eradicate pneumococcal colonization,[2],≤ 10 min
